According to paper PMC8286840, “Identifying SARS-CoV-2 antiviral compounds by screening for small molecule inhibitors of Nsp3 papain-like protease” (Biochemical Journal, 2021):
Structures can show the parent of a compound that is named as a salt. Where two headings read alike, the source gives them in different places.

Tests used:
[1] = target: T1, SARS-CoV-2 PLpro (nsp3 1564–1878) (Severe acute respiratory syndrome coronavirus 2, UniProt P0DTD1); assay: biochemical; set-up: FRET-quenched peptide (Pro3) cleavage by PLpro, 10 min pre-incubation, slope over 20 min, normalised to no-compound control; conditions: low concentration screen, read-out: % of control remaining
[2] = target: T1, SARS-CoV-2 PLpro (nsp3 1564–1878); assay: biochemical; set-up: FRET-quenched peptide (Pro3) cleavage by PLpro, 10 min pre-incubation, slope over 20 min, normalised to no-compound control; conditions: high concentration screen, read-out: % of control remaining

`S=c1[nH]cnc2nc[nH]c12` [Mercaptopurine] showed a remaining activity at 1.25 µM ([1]; Well no.=4771) of 104% and a remaining activity at 3.75 µM ([2]; Well no.=4771) of 105%.
With `CNc1nc(-c2ccc3c(N)n[nH]c3c2)cc(N2C[C@@H](C(=O)NC3CCCCC3)CC[C@H]2C)n1` [GSK2334470] the remaining activity at 1.25 µM ([1]; Well no.=5464) was 94.9% and the remaining activity at 3.75 µM ([2]; Well no.=5464) was 101%.
With `CNC(=O)[C@H]1O[C@@H](n2cnc3c(N)ncnc32)[C@H](O)[C@@H]1O` [5'-N-Methyl carboxamidoadenosine] the remaining activity at 1.25 µM ([1]; Well no.=14) was 101% and the remaining activity at 3.75 µM ([2]; Well no.=14) was 98%.
`C#CCOc1ccc2c(c1)c(-c1ccc(C(C)C)cc1)nc(=O)n2C(C)C` [Calcium-Sensing Receptor Antagonists I] was tested, and the remaining activity at 1.25 µM ([1]; Well no.=8007) was 101% and the remaining activity at 3.75 µM ([2]; Well no.=8007) was 98.6%.
`NC1CCN(c2cccc(Cl)n2)CC1` [SR 57227A] was tested, and the remaining activity at 1.25 µM ([1]; Well no.=1262) was 103% and the remaining activity at 3.75 µM ([2]; Well no.=1262) was 102%.
`CC(C)c1ccc2c(c1)c(SC(C)(C)C)c(CC(C)(C)C(=O)O)n2Cc1ccc(Cl)cc1` [MK-886 (L-663,536)] was tested, and the remaining activity at 1.25 µM ([1]; Well no.=8678) was 96.7% and the remaining activity at 3.75 µM ([2]; Well no.=8678) was 94.2%.
`CCCCCCCCCCCC1=C(O)C(=O)C=C(O)C1=O` [Embelin] was tested, and the remaining activity at 1.25 µM ([1]; Well no.=3273) was 105%, the remaining activity at 1.25 µM ([1]; Well no.=6494) was 95.2% and the remaining activity at 3.75 µM ([2]; Well no.=3273) was 107%. The remaining activity at 3.75 µM ([2]; Well no.=6494) was 88.6%.
`CCOc1ccn(-c2ccc(F)cc2)c(=O)c1C(=O)Nc1ccc(Oc2ccnc(N)c2Cl)c(F)c1` [BMS 777607] showed a remaining activity at 1.25 µM ([1]; Well no.=5297) of 94.1% and a remaining activity at 3.75 µM ([2]; Well no.=5297) of 90.4%.
`COC1=CC(c2cc3ccccc3[nH]2)=N/C1=C\c1[nH]c(C)cc1C` [Obatoclax mesylate (GX15-070)] was tested, and the remaining activity at 1.25 µM ([1]; Well no.=4619) was 95.3% and the remaining activity at 3.75 µM ([2]; Well no.=4619) was 98.7%.
Molecule `N[C@@H](Cn1oc(=O)[nH]c1=O)C(=O)O` [Quisqualic acid] has a remaining activity at 1.25 µM ([1]; Well no.=3535) of 101% and a remaining activity at 3.75 µM ([2]; Well no.=3535) of 101%.
With `COc1cc2c(c(OC)c1OC)-c1c(cc3c(c1OC)OCO3)C[C@H](C)[C@](C)(O)C2` [Gomisin A] the remaining activity at 1.25 µM ([1]; Well no.=5817) was 103% and the remaining activity at 3.75 µM ([2]; Well no.=5817) was 104%.
With `Nc1ccn([C@@H]2O[C@H](CO)[C@@H](O)C2(F)F)c(=O)n1` [Gemcitabine (hydrochloride)] the remaining activity at 1.25 µM ([1]; Well no.=8056) was 96.9% and the remaining activity at 3.75 µM ([2]; Well no.=8056) was 100%.
In the case of `CNC(=O)CCc1cc(-c2ccc(-c3ccc(C(F)(F)F)cc3)cc2)nn1-c1ccc(N2CCNCC2)cc1` [OSU-T315], the remaining activity at 1.25 µM ([1]; Well no.=7022) is reported as 92.9% and the remaining activity at 3.75 µM ([2]; Well no.=7022) is reported as 93.8%.
Molecule `CCCC(=O)Nc1cccc(NC(=O)c2ccccc2Br)c1` [ML-161] has a remaining activity at 1.25 µM ([1]; Well no.=4845) of 95% and a remaining activity at 3.75 µM ([2]; Well no.=4845) of 93%.
`c1cc(-c2cnn3cc(-c4ccc(OCCN5CCCCC5)cc4)cnc23)ccn1` [AMPK Inhibitor, Compound C] showed a remaining activity at 1.25 µM ([1]; Well no.=2324) of 98.4% and a remaining activity at 3.75 µM ([2]; Well no.=2324) of 103%.
`O=C(OC1CCN(CCCl)CC1)C(c1ccccc1)c1ccccc1` [4-Diphenylacetoxy-N-(2-chloroethyl)piperidine hydrochloride] showed a remaining activity at 1.25 µM ([1]; Well no.=594) of 92.6% and a remaining activity at 3.75 µM ([2]; Well no.=594) of 92.6%.
Molecule `CCc1ccn2ccnc2c1N1CCCN([C@@H](CC(N)=O)C2CCN(C(=O)[C@H]3C[C@@H]4CC[C@H]3O4)CC2)CC1` [CXCR7 modulator 2] has a remaining activity at 1.25 µM ([1]; Well no.=8557) of 112% and a remaining activity at 3.75 µM ([2]; Well no.=8557) of 108%.
With `CCCCc1nc(Cl)c(CO)n1Cc1ccc(-c2ccccc2-c2nnn[nH]2)cc1` [Losartan (potassium)] the remaining activity at 1.25 µM ([1]; Well no.=8239) was 101% and the remaining activity at 3.75 µM ([2]; Well no.=8239) was 104%.
In the case of `O=C(Nc1cccc(-c2ccccc2)c1)OC1CCCCC1` [URB602], the remaining activity at 1.25 µM ([1]; Well no.=5392) is reported as 99.5% and the remaining activity at 3.75 µM ([2]; Well no.=5392) is reported as 105%.
Work on `COc1cccc(-c2c(C)n(Cc3c(F)cccc3C(F)(F)F)c(=O)n(C[C@H](NCCCC(=O)O)c3ccccc3)c2=O)c1F` [Elagolix] yielded a remaining activity at 1.25 µM ([1]; Well no.=7420) of 97.8% and a remaining activity at 3.75 µM ([2]; Well no.=7420) of 94.7%.
Molecule `CCc1cccc(N(C)C(=N)Nc2cccc3ccccc23)c1` [CNS-1102] has a remaining activity at 1.25 µM ([1]; Well no.=366) of 99.2% and a remaining activity at 3.75 µM ([2]; Well no.=366) of 100%.
For `NCCc1c[nH]cn1` [Histamine (phosphate)], the remaining activity at 1.25 µM ([1]; Well no.=6717) was 95.8% and the remaining activity at 3.75 µM ([2]; Well no.=6717) was 91.6%.
For `COc1cc2c(Oc3ccc4[nH]c(C)cc4c3F)ncnc2cc1OCCCN1CCCC1` [Cediranib (AZD2171)], the remaining activity at 1.25 µM ([1]; Well no.=4999) was 101% and the remaining activity at 3.75 µM ([2]; Well no.=4999) was 103%.
For `CC(N)=O` [Acetamide], the remaining activity at 1.25 µM ([1]; Well no.=7) was 101% and the remaining activity at 3.75 µM ([2]; Well no.=7) was 101%.
Molecule `OC[C@H]1O[C@@H](Oc2cc(O)cc(/C=C/c3ccc(O)cc3)c2)[C@H](O)[C@@H](O)[C@@H]1O` [Polydatin] has a remaining activity at 1.25 µM ([1]; Well no.=6304) of 100%, a remaining activity at 1.25 µM ([1]; Well no.=8196) of 102% and a remaining activity at 3.75 µM ([2]; Well no.=6304) of 98.5%. For the same molecule, the remaining activity at 3.75 µM ([2]; Well no.=8196) was 97.4%.
`CCOC(=O)c1c2c3c(cccc3[nH]c1=O)C(=O)c1ccccc1-2` [NQDI-1] showed a remaining activity at 1.25 µM ([1]; Well no.=5480) of 90.1% and a remaining activity at 3.75 µM ([2]; Well no.=5480) of 96.7%.
Molecule `CC(C)(C)S(=O)(=O)c1cc2c(Nc3ccc4scnc4c3)ncnc2cc1OCCO` [RIP2 kinase inhibitor 1] has a remaining activity at 1.25 µM ([1]; Well no.=6932) of 102% and a remaining activity at 3.75 µM ([2]; Well no.=6932) of 105%.
Work on `COc1cc(CC(C)N)c(OC)cc1I` (racemic) yielded a remaining activity at 1.25 µM ([1]; Well no.=686) of 94.3% and a remaining activity at 3.75 µM ([2]; Well no.=686) of 92.3%.
Work on `Cc1onc(-c2ccccc2)c1C(=O)N[C@@H]1C(=O)N2[C@@H]1SC(C)(C)[C@@H]2C(=O)O` [Oxacillin (sodium monohydrate)] yielded a remaining activity at 1.25 µM ([1]; Well no.=7552) of 99.7% and a remaining activity at 3.75 µM ([2]; Well no.=7552) of 97.5%.
For `CNc1ccc2oc(C[C@H]3O[C@@]4(CC[C@H]3C)O[C@H]([C@H](C)C(=O)c3ccc[nH]3)[C@H](C)C[C@H]4C)nc2c1C(=O)O` [Calcimycin], the remaining activity at 1.25 µM ([1]; Well no.=376) was 98.7% and the remaining activity at 3.75 µM ([2]; Well no.=376) was 96.8%.
`COC(=O)C(N)Cc1ccc(Cl)cc1` (racemic) [DL-p-Chlorophenylalanine methyl ester hydrochloride] showed a remaining activity at 1.25 µM ([1]; Well no.=364) of 95.9% and a remaining activity at 3.75 µM ([2]; Well no.=364) of 91.1%.
For `C=CCNC(N)=S` [Allylthiourea], the remaining activity at 1.25 µM ([1]; Well no.=5076) was 106% and the remaining activity at 3.75 µM ([2]; Well no.=5076) was 106%.
`CC(=O)N[C@@H](CS)C(=O)O` [N-Acetyl-L-Cysteine] was tested, and the remaining activity at 1.25 µM ([1]; Well no.=4) was 98.3% and the remaining activity at 3.75 µM ([2]; Well no.=4) was 97.6%.
Molecule `CC(C)(C)NCC(O)c1ccc(O)cc1Cl` (stereo not drawn) [HOKU-81] has a remaining activity at 1.25 µM ([1]; Well no.=8051) of 93% and a remaining activity at 3.75 µM ([2]; Well no.=8051) of 96.3%.
